From US11753407B2, “Compounds for treating spinal muscular atrophy” (PTC Therapeutics, Inc., priority 2012, dated 2023) come the findings set out here.

The subject of data set [1] is SMN2 minigene mRNA (SMN2-A minigene) in HEK293H cells. The data set is described as follows: SMN2 minigene mRNA splicing RT-qPCR assay in cultured cells. It counts as cell-based, human. The settings on record: Homo sapiens, HEK293-H; concentration increasing full length SMN2 mRNA 1.5-fold relative to vehicle-treated cells; HEK293H cells with SMN2-A minigene, 24 hours, 7-point concentration data; read-out: EC1.5x for production of full length SMN2 mRNA. Put shortly:
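EC1.5× = concentration raising full-length SMN2 minigene mRNA 1.5-fold over vehicle, from 7-point curves in duplicate. Stably transfected HEK293H cells exposed 24 h at 37 °C; lysates assayed by multiplex RT-qPCR, minigene FL signal normalized to GAPDH via modified ΔΔCt.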
Background: Quantitative PCR measures a nucleic acid by following its amplification.

The subject of data set [2] is Smn protein in SMA patient fibroblast cells (GM03813). In words: Smn protein assay in cultured cells (SMN HTRF). The format is cell-based, human. The settings on record: SMA patient fibroblast cells, 48 hours; for EC1.5x for Smn protein expression: 7-point concentration curve, SMN HTRF, concentration producing 1.5 times Smn protein vs DMSO vehicle control; for maximum fold (Fold) increase of Smn protein: 7-point concentration data, fold relative to vehicle control. Put shortly: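 Smn protein quantified by HTRF with anti-SMN d2/kryptate pair, 665/620 nm ratio blank-corrected, in RIPA lysates of GM03813 fibroblasts after 48 h compound exposure (7 concentrations, 3.16-fold steps, triplicates). Values: concentration producing 1.5× vehicle Smn level, and maximal fold increase.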
(Time-resolved FRET reads energy transfer from a long-lived donor to a nearby acceptor.)

Compound `Cc1cn2cc(-c3ccc4nc(C5CCN(C)CC5)cc(=O)n4c3)cc(F)c2n1` [Compound 462, 7-(8-fluoro-2-methylimidazo[1,2-a]pyridin-6-yl)-2-(1-methylpiperidin-4-yl)-4H-pyrido[1,2-a]pyrimidin-4-one] displayed a melting point of 235 to 238 °C. Also, the EC (1.5-fold increase) in data set [1] was less than 0.1 µM. Also, in data set [2], the “EC1.5x for Smn protein expression” value is recorded as “**** (an EC1.5x≤0.3 μM is indicated by four stars (****))” and the “maximum fold (Fold) increase of Smn protein” value (“maximum fold (Fold) increase” below) was “***** (a fold increase >1.65 is indicated by five stars (*****))”.

In turn, `COc1ccc(-c2cc(=O)n3cc(N4C[C@@H](C)N[C@@H](C)C4)cc(C)c3n2)cc1OC` [Compound 332, 2-(3,4-dimethoxyphenyl)-7-[(3R,5S)-3,5-dimethylpiperazin-1-yl]-9-methyl-4H-pyrido[1,2-a]pyrimidin-4-one] gave a melting point of 225 to 233 °C. Further, the EC (1.5-fold increase) in data set [1] lay in the range of 0.3 to 1 µM. In addition, in data set [2], the “maximum fold (Fold) increase” value is reported as “* (A maximum fold increase of ≤1.2 is indicated by one star (*))”.

As to `COc1ccc(-c2cc(=O)n3cc(N4CCN(C)CC4)cc(F)c3n2)cc1OC` [Compound 40, 2-(3,4-dimethoxyphenyl)-9-fluoro-7-(4-methylpiperazin-1-yl)-4H-pyrido[1,2-a]pyrimidin-4-one], the melting point fell in the range of 183 to 185 °C. For the same compound, the EC (1.5-fold increase) in data set [1] lay in the range of 3 to 30 µM. For the same compound, the “maximum fold (Fold) increase” value in data set [2] was “* (A maximum fold increase of ≤1.2 is indicated by one star (*))”.

`Cc1cn2nc(-c3cc(=O)n4cc(C5=CCNCC5)ccc4n3)cc2c(C)n1` [Cpd 342, 2-(4,6-dimethylpyrazolo[1,5-a]pyrazin-2-yl)-7-(1,2,3,6-tetrahydropyridin-4-yl)-4H-pyrido[1,2-a]pyrimidin-4-one] yielded a melting point of 207 to 210 °C. Further, the EC (1.5-fold increase) in data set [1] is less than 0.1 µM. For the same compound, in data set [2], the “EC1.5x for Smn protein expression” value was “**** (an EC1.5x≤0.3 μM is indicated by four stars (****))” and the “maximum fold (Fold) increase” value is reported as “***** (a fold increase >1.65 is indicated by five stars (*****))”.

For `Cc1cc(C2CCN(C)CC2)cn2c(=O)cc(-c3ccc4c(cnn4C)c3)nc12` [Compound 784, 9-methyl-2-(1-methyl-1H-indazol-5-yl)-7-(1-methylpiperidin-4-yl)-4H-pyrido[1,2-a]pyrimidin-4-one], the melting point lay in the range of 255 to 263 °C. The EC (1.5-fold increase) in data set [1] fell in the range of 0.1 to 0.3 µM. Moreover, in data set [2], the “EC1.5x for Smn protein expression” value was “*** (an EC1.5× between >0.3 μM and ≤1 μM is indicated by three stars (***))”; the “maximum fold (Fold) increase” value is “**** (a fold increase between >1.5 and ≤1.65 is indicated by four stars (****))”.

For the compound `COCCNC1CCN(c2cc(C)c3nc(-c4ccc(OC)c(OC)c4)cc(=O)n3c2)CC1` [Compound 456, 2-(3,4-dimethoxyphenyl)-7-{4-[(2-methoxyethyl)amino]piperidin-1-yl}-9-methyl-4H-pyrido[1,2-a]pyrimidin-4-one], the melting point lay within 178 to 182 °C. Further, the EC (1.5-fold increase) in data set [1] lay within 0.1 to 0.3 µM. In addition, in data set [2], the “maximum fold (Fold) increase” value was “*** (a fold increase between >1.35 and ≤1.5 is indicated by three stars (***))”.

`CN[C@H]1CC[C@@H](c2ccc3nc(-c4ccc(OC)c(OC)c4)cc(=O)n3c2)CC1` [Compound 405, 2-(3,4-dimethoxyphenyl)-7-[cis-4-(methylamino)cyclohexyl]-4H-pyrido[1,2-a]pyrimidin-4-one] yielded a melting point of 156 to 158 °C. For the same compound, the EC (1.5-fold increase) in data set [1] lay in the range of 0.1 to 0.3 µM. Further, in data set [2], the “EC1.5x for Smn protein expression” value is “*** (an EC1.5× between >0.3 μM and ≤1 μM is indicated by three stars (***))”; the “maximum fold (Fold) increase” value was “**** (a fold increase between >1.5 and ≤1.65 is indicated by four stars (****))”.

In turn, `Cn1cc2cc(-c3cc(=O)n4cc(C5CCN(CCO)CC5)ccc4n3)ccc2n1` [Compound 613, 7-[1-(2-hydroxyethyl)piperidin-4-yl]-2-(2-methyl-2H-indazol-5-yl)-4H-pyrido[1,2-a]pyrimidin-4-one] registered a melting point of 170 to 172 °C. Moreover, in data set [1], the EC (1.5-fold increase) is less than 0.1 µM. Moreover, in data set [2], the “EC1.5x for Smn protein expression” value is reported as “**** (an EC1.5x≤0.3 μM is indicated by four stars (****))” and the “maximum fold (Fold) increase” value is recorded as “***** (a fold increase >1.65 is indicated by five stars (*****))”.

`Cc1cn2cc(-c3cc(=O)n4cc(C5CCN(C(C)C)CC5)ncc4n3)cc(Cl)c2n1` [Compound 595, 2-(8-chloro-2-methylimidazo[1,2-a]pyridin-6-yl)-7-[1-(propan-2-yl)piperidin-4-yl]-4H-pyrazino[1,2-a]pyrimidin-4-one]: the melting point was 243 to 245 °C. The EC (1.5-fold increase) in data set [1] is less than 0.1 µM. For the same compound, in data set [2], the “EC1.5x for Smn protein expression” value is recorded as “**** (an EC1.5x≤0.3 μM is indicated by four stars (****))”; the “maximum fold (Fold) increase” value is “**** (a fold increase between >1.5 and ≤1.65 is indicated by four stars (****))”.

As to `Cc1cn2cc(-c3cc(=O)n4cc(N5CCNCC5)ccc4n3)cc(F)c2n1` [Cpd 209, 2-(8-fluoro-2-methylimidazo[1,2-a]pyridin-6-yl)-7-(piperazin-1-yl)-4H-pyrido[1,2-a]pyrimidin-4-one], the melting point lay in the range of 282 to 288 °C. Besides, the EC (1.5-fold increase) in data set [1] was less than 0.1 µM. Besides, in data set [2], the “EC1.5x for Smn protein expression” value was “**** (an EC1.5x≤0.3 μM is indicated by four stars (****))”; the “maximum fold (Fold) increase” value is “**** (a fold increase between >1.5 and ≤1.65 is indicated by four stars (****))”.

On to `Cc1nc2ccc(-c3cc(=O)n4cc(OC5CCNCC5)ccc4n3)cc2s1` [Compound 286, 2-(2-methyl-1,3-benzothiazol-6-yl)-7-(piperidin-4-yloxy)-4H-pyrido[1,2-a]pyrimidin-4-one], for which the melting point lay in the range of 218 to 220 °C. In addition, the EC (1.5-fold increase) in data set [1] fell in the range of 0.3 to 1 µM. In data set [2], the “EC1.5x for Smn protein expression” value was “*** (an EC1.5× between >0.3 μM and ≤1 μM is indicated by three stars (***))”; the “maximum fold (Fold) increase” value was “**** (a fold increase between >1.5 and ≤1.65 is indicated by four stars (****))”.

As to `Cc1cn2nc(-c3cc(=O)n4cc(C5CCN(C)CC5)ccc4n3)cc2c(C)n1` [Compound 453, 2-(4,6-dimethylpyrazolo[1,5-a]pyrazin-2-yl)-7-(1-methylpiperidin-4-yl)-4H-pyrido[1,2-a]pyrimidin-4-one], the melting point lay in the range of 220 to 222 °C. Moreover, the EC (1.5-fold increase) in data set [1] is less than 0.1 µM. Further, in data set [2], the “EC1.5x for Smn protein expression” value is “**** (an EC1.5x≤0.3 μM is indicated by four stars (****))” and the “maximum fold (Fold) increase” value was “***** (a fold increase >1.65 is indicated by five stars (*****))”.

With `Cc1cn2cc(-c3cc(=O)n4cc(N5CCN[C@@H](C)C5)ccc4n3)cc(C(F)(F)F)c2n1` [Compound 735, 7-[(3S)-3-methylpiperazin-1-yl]-2-[2-methyl-8-(trifluoromethyl)imidazo[1,2-a]pyridin-6-yl]-4H-pyrido[1,2-a]pyrimidin-4-one], the melting point was greater than 320 °C. Further, the EC (1.5-fold increase) in data set [1] is less than 0.1 µM. Further, in data set [2], the “EC1.5x for Smn protein expression” value is “**** (an EC1.5x≤0.3 μM is indicated by four stars (****))”; the “maximum fold (Fold) increase” value is “**** (a fold increase between >1.5 and ≤1.65 is indicated by four stars (****))”.

Compound `Cc1cn2cc(-c3ccc4nc(C5CCN(C)CC5)cc(=O)n4c3)ccc2n1` [Compound 460, 7-(2-methylimidazo[1,2-a]pyridin-6-yl)-2-(1-methylpiperidin-4-yl)-4H-pyrido[1,2-a]pyrimidin-4-one] gave a melting point of 227 to 230 °C. Also, the EC (1.5-fold increase) in data set [1] fell in the range of 0.1 to 0.3 µM. For the same compound, in data set [2], the “EC1.5x for Smn protein expression” value is “*** (an EC1.5× between >0.3 μM and ≤1 μM is indicated by three stars (***))”; the “maximum fold (Fold) increase” value is “**** (a fold increase between >1.5 and ≤1.65 is indicated by four stars (****))”.

With `CCc1cc(C2CCN(CC)CC2)cn2c(=O)cc(-c3ccc(OC)c(OC)c3)nc12` [Compound 436, 2-(3,4-dimethoxyphenyl)-9-ethyl-7-(1-ethylpiperidin-4-yl)-4H-pyrido[1,2-a]pyrimidin-4-one], the melting point was in the range of 157 to 162 °C. Also, in data set [1], the EC (1.5-fold increase) was in the range of 0.3 to 1 µM. In addition, the “maximum fold (Fold) increase” value in data set [2] was “** (a fold increase between >1.2 and ≤1.35 is indicated by two stars (**))”.

`Cc1cn2cc(-c3cc(=O)n4cc(N5CCNCC5)ccc4n3)cc(Cl)c2n1` [Compound 287, 2-(8-chloro-2-methylimidazo[1,2-a]pyridin-6-yl)-7-(piperazin-1-yl)-4H-pyrido[1,2-a]pyrimidin-4-one] returned a melting point of 245 to 251 °C. Besides, the EC (1.5-fold increase) in data set [1] is less than 0.1 µM. Besides, in data set [2], the “EC1.5x for Smn protein expression” value is reported as “**** (an EC1.5x≤0.3 μM is indicated by four stars (****))” and the “maximum fold (Fold) increase” value is on record as “***** (a fold increase >1.65 is indicated by five stars (*****))”.

With `N#Cc1ccc(-c2cc(=O)n3cc(N4CCNCC4)ccc3n2)cc1` [Compound 73, 4-[4-oxo-7-(piperazin-1-yl)-4H-pyrido[1,2-a]pyrimidin-2-yl]benzonitrile], the melting point lay within 146 to 151 °C. The EC (1.5-fold increase) in data set [1] is 3 to 30 µM. In addition, in data set [2], the “maximum fold (Fold) increase” value was “** (a fold increase between >1.2 and ≤1.35 is indicated by two stars (**))”.

As usually defined, the melting point is the temperature, or range, at which the solid turns liquid.
